Source: PubChem BioAssay AID1845199 (Molecular Pharmacology Branch, DTP, NCI, 2023)
Values joined by “and” are separate entries in the source; they are usually repeats but may differ in a detail not shown here. Equal entries are not always repeated.

Tested on: 556581-035-R-J1 tumor spheroid viability, % test/control
Assay: Anticancer human tumor 556581-035-R-J1 patient-derived ovarian carcinoma cell line growth inhibition
Details: spheroids with HUVEC and MSC; for viability, T/C: stronger effect = lower value
Excerpt: Multicellular complex tumor spheroid response to DNA repair inhibitors in combination with DNA-damaging drugs
This study explores the anticancer activities of DNA-damaging drugs and inhibitors of DNA damage repair, both as single agents and in combinations. Complex tumor spheroids comprised of malignant cells, endothelial cells and mesenchymal stem cells served as an in vitro model for human solid tumors. This model system incorporates physiologically relevant features and patient-derived or established malignant cell lines with clinically relevant genetic alterations from many tumor types. Twenty-six patient-derived or established malignant cell lines were evaluated representing sarcoma, melanoma, small cell lung cancer (SCLC), non-small cell lung cancer (NSCLC), as well as bladder, ovarian and pancreatic cancers. The concentration ranges selected for each drug and investigational agent were based upon clinically achievable concentrations if the clinical Cmax of the agent was known.
Compounds. The drugs and compounds olaparib (NSC753686), talazoparib (NSC767125), berzosertib (NSC777718), elimusertib (NSC800525), nedisertib (NSC802822), VX-984 (NSC792969), AZD-1390 (NSC803789), temozolomide (NSC362856), topotecan (NSC609699), trabectedin (NSC813783), staurosporine (NSC755774), and gemcitabine (NSC613327) were obtained from the National Cancer Institute (NCI) Developmental Therapeutics Program Chemical Repository. The FDA-approved anticancer drug set is available from the Developmental Therapeutics Program at https://dtp.cancer.gov/organization/dscb/obtaining/available_plates.htm. […] The stock solutions were prepared in dimethyl sulfoxide (DMSO, Sigma-Aldrich, St. Louis, MO, cat. D2650) at 400-fold the tested concentration and stored at -70 degrees C. Prior to their use, the stock solutions were diluted in fresh medium and the final DMSO concentration in the assay was 0.25% (v/v). All drugs and investigational agents were tested over a range starting from a high concentration at or near the clinical Cmax and decreasing in half-log increments. If the clinical Cmax for an agent had not been determined, the highest concentration tested was 10 microM.
Cell Lines. The patient-derived cancer cell (PDC) lines: 156681-154-R-J1-PDC, 283228-195-R-J1-PDC, 287954-098-R-J1-PDC, 292921-168-R-J2-PDC, 349418-098-R-PDC, 425362-245-T-J1-PDC, 556581-035-R-J1-PDC, and BL0293-F563-PDC were received from the NCI Patient-Derived Models Repository (PDMR, https://pdmr.cancer.gov). The established cell lines HS-SY-2 (RRID:CVCL_8719), MPNST, and SYO-1 (RRID:CVCL_7146) were obtained from the Sloan Kettering Institute. The alveolar soft parts sarcoma cell line ASPS-1 (RRID:CVCL_S738) was established at the NCI and grown from internal seed stocks. The following established cell lines were purchased from the American Type Culture Collection (ATCC, Manassas, VA): G-401 (ATCC, cat. CRL-1441, RRID:CVCL_0270), SW982 (ATCC, cat. HTB-93, RRID:CVCL_1734), VA-ES-BJ (ATCC, cat. CRL-2138, RRID:CVCL_1785), NCI-H719 (ATCC, cat. CRL-5837, RRID:CVCL_1582), NCI-H196 (ATCC, cat. CRL-5823, RRID:CVCL_1509), NCI-H841 (ATCC, cat. CRL-5845, RRID:CVCL_1595), NCI-H1618 (ATCC, cat. CRL-5879, RRID:CVCL_1480), NCI-H1876 (ATCC, cat. CRL-5902, RRID:CVCL_1503), DMS 114 (ATCC, cat. CRL-2066; RRID:CVCL_1174), NCI-H211 (ATCC, cat. CRL-5824; RRID:CVCL_1529), and SW 1271 (ATCC, cat. CRL-2177, RRID:CVCL_1716). The small cell lung cancer cell line COR-L88 was purchased from Sigma-Aldrich (cat. 92031917-1VL, RRID:CVCL_1141). The non-small cell lung cancer cell lines NCI-H226 (RRID:CVCL_1544) and NCI-H322M (RRID:CVCL_1557) were established at the NCI and grown from internal seed stocks. Pooled donor human umbilical vein endothelial cells (HUVEC, Lonza, cat. CC-2519) and human mesenchymal stem cells (hMSC, Lonza, cat. PT-2501) were purchased from Lonza (Walkersville, MD).
Cell Culture. All cells were maintained in an incubator at 37 degrees C and 5% CO2 with 95% humidity. […]

[1] = compound alone, run of 10/17/2019
[2] = compound alone, run of 10/25/2019
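Also: spheroids exposed to compounds for 7 days before viability read.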

SMILES	viability, T/C (compound 0.0316 µM)	viability, T/C (compound 0.1 µM)	viability, T/C (compound 0.316 µM)	viability, T/C (compound 1 µM)	viability, T/C (compound 3.16 µM)	viability, T/C (compound 10 µM)	IC50 (curve of compound)	viability, T/C (compound 0.03 µM)	viability, T/C (compound 0.0949 µM)	viability, T/C (compound 0.3 µM)	viability, T/C (compound 0.949 µM)	viability, T/C (compound 3 µM)	further results
CC(C)n1c(=O)n(C)c2cnc3cc(F)c(-c4ccc(OCCCN5CCCCC5)nc4)cc3c21	104% and 103% and 102%	109% and 106% and 112%	95.9% and 108% and 103%	105% and 114% and 101%	100% and 99.6% and 95.5%	74.3% and 73.2% and 69%	> 10000 nM						
CC1COCCN1c1cc(-c2ccnn2C)c2ccnc(-c3ccn[nH]3)c2n1 (stereo not given)	95.7% and 92.7% and 89.5%	76.3% and 75.8% and 79.5%	56.5% and 57.8% and 55.5%	45.5% and 44.4% and 41.9%	39.9% and 39% and 33.9%	35.6% and 32.5% and 30.2%	636 nM and 647 nM and 521 nM						
CC[C@@]1(O)C(=O)OCc2c1cc1n(c2=O)Cc2cc3c(CN(C)C)c(O)ccc3nc2-1								74.6% [middle of 10 runs]	58.5% [middle of 10 runs]	16.5% [middle of 10 runs]			viability, T/C (compound 0.003 µM): 101% [middle of 10 runs]; IC50 [1]: 121 nM [middle of 4 runs]; IC50 [2]: 80.7 nM [middle of 5 runs]
CNCc1ccc(-c2cc(-c3nc(-c4ccc(S(=O)(=O)C(C)C)cc4)cnc3N)on2)cc1							1430 nM and 1680 nM and 1750 nM	105% and 95.6% and 111%	103% and 115% and 108%	106% and 112% and 108%	66.6% and 80.3% and 75.4%	20.2% and 19.4% and 27.6%	viability, T/C (compound 0.00949 µM): 107% and 97.6% and 104%
COc1cc(C)[nH]c(=O)c1CN1CCc2c(Cl)cc(C(OC)C3COC3)c(Cl)c2C1=O (stereo not given)	103% and 105% and 98.8%	110% and 101% and 105%	107% (2×) and 99.8%	111% and 108% and 102%	114% and 107% and 96.9%	106% and 99.4% and 98.3%	> 10000 nM						
COc1cc2c(cc1O)CCNC21CSC2c3c(OC(C)=O)c(C)c4c(c3C(COC1=O)N1C(O)C3Cc5cc(C)c(OC)c(O)c5C(C21)N3C)OCO4 (stereo not given)													viability, T/C (compound 94.9 pM): 106% [middle of 10 runs]; viability, T/C (compound 0.0003 µM): 95.4% [middle of 10 runs]; viability, T/C (compound 0.000949 µM): 41% [middle of 10 runs]; viability, T/C (compound 0.003 µM): 0.66% [middle of 10 runs]; IC50 [2]: 0.795 nM [middle of 10 runs]
COc1ccc([C@@H](O)c2cc(-c3ncnc4cc(N5CCOCC5)ccc34)c(F)cc2Cl)nn1	103% and 102% and 98.8%	104% and 111% and 99.6%	81.3% and 90.1% and 91%	61.1% and 70.3% and 64.7%	40.9% and 49.5% and 41.4%	31.9% and 35.1% and 31.1%	1810 nM and 2830 nM and 2020 nM						
Cc1cc(C)c(CNC(=O)c2cc(-c3ccc(CN4CCOCC4)cc3)cc3c2cnn3C2CCCC2)c(=O)[nH]1	103% and 104% and 86.6%	108% and 103% and 97.3%	112% and 108% and 97.3%	115% and 102% and 120%	104% and 105% and 107%	89.3% (2×) and 93.4%	> 10000 nM						
Cc1sc2c(c1C)C(c1ccc(Cl)cc1)=NC(CC(=O)Nc1ccc(O)cc1)c1nnc(C)n1-2 (stereo not given)							> 3000 nM	98.1% and 83.8% and 103%	82.5% and 90.3% and 88.8%	74.5% and 89.5% and 82.5%	71.8% and 76.6% and 76%	66.2% and 70.1% and 71.4%	viability, T/C (compound 0.00949 µM): 102% and 101% and 103%
Cn1ncnc1[C@H]1c2n[nH]c(=O)c3cc(F)cc(c23)N[C@@H]1c1ccc(F)cc1							> 3000 nM	107% and 97.1% and 105%	102% and 89.2% and 95.8%	97.6% and 80.2% and 83.6%	77.9% and 69.9% and 76%	60.8% and 52.1% and 56.5%	viability, T/C (compound 0.00949 µM): 110% and 95.9% and 100%
Cn1nnc2c(C(N)=O)ncn2c1=O				103% [middle of 10 runs]		104% [middle of 10 runs]							viability, T/C (compound 31.6 µM): 107% [middle of 10 runs]; IC50 [1]: > 100000 nM
O=C(c1cc(Cc2n[nH]c(=O)c3ccccc23)ccc1F)N1CCN(C(=O)C2CC2)CC1							> 30000 nM		100% and 105% and 95.8%	97.9% and 107% and 110%	98.4% and 102% and 100%	90% and 103% and 96.5%	viability, T/C (compound 9.49 µM): 75.5% and 90.5% and 81.3%; viability, T/C (compound 30 µM): 64.7% and 72.9% and 67.7%
[2H]c1nc(C)nc([2H])c1-c1cc(NC[C@@H](C)c2cccc3c(C(=O)NC)ccnc23)ncn1	112% and 111% and 102%	111% and 107% (2×)	108% and 109% and 110%	113% and 105% and 101%	116% and 106% and 105%	115% and 111% and 105%	> 10000 nM						
